Data published in patent US20110152313A1 (MACQUARIE UNIVERSITY, priority 2008, published 2011).

Key:
Test in all cases: kinase binding screen (kinase-tagged T7 phage, qPCR), % Ctrl
CAMK2A = CAMK2A (Homo sapiens, UniProt Q9UQM7)
Procedure: (§1) Percentage kinase inhibition at a set concentration was performed by methods well known in the prior art (Fabian, M. A. et al. Nat. Biotechnol. 2005, 23, 329; Karaman et al. (2008) Nat. Biotechnol. […], 26, 127). Briefly, kinase-tagged T7 phage strains were grown in parallel in 24-well blocks in an E. coli host derived from the BL21 strain. E. coli were grown to log-phase and infected with T7 phage from a frozen stock (multiplicity of infection=0.4) and incubated with shaking at 32° C. until lysis (90-150 minutes). The lysates were centrifuged (6,000×g) and filtered (0.2 μm) to remove cell debris. […] The liganded beads were blocked with excess biotin and washed with blocking buffer (SeaBlock (Pierce); 1% BSA, 0.05% Tween 20, 1 mM DTT) to remove unbound ligand and to reduce non-specific phage binding. […] Test compounds were prepared as 40× stocks in 100% DMSO and directly diluted into the assay. All reactions were performed in polypropylene 384-well plates in a final volume of 0.04 mL. […] The kinase concentration in the eluates was measured by qPCR.

CAMK2G = CAMK2G (Homo sapiens, UniProt Q13555)
Sequence of CAMK2G (Q13555 whole entry): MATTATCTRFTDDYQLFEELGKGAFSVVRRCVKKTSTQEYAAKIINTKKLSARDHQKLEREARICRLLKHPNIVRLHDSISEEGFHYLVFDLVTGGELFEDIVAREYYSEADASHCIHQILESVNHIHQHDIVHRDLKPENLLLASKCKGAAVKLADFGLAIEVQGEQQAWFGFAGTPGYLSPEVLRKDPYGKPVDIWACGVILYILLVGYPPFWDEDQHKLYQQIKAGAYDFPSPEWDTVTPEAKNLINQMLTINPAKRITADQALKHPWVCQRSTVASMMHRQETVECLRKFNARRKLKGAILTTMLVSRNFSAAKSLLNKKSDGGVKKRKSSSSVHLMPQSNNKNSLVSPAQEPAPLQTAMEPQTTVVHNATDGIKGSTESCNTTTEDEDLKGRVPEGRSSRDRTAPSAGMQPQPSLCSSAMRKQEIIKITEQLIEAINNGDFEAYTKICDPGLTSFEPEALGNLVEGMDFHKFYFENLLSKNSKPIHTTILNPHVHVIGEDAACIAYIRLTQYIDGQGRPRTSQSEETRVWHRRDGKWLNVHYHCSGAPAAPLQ
Procedure: as §1

CDK7 = CDK7 (Homo sapiens, UniProt P50613)
Sequence of CDK7 (P50613 whole entry): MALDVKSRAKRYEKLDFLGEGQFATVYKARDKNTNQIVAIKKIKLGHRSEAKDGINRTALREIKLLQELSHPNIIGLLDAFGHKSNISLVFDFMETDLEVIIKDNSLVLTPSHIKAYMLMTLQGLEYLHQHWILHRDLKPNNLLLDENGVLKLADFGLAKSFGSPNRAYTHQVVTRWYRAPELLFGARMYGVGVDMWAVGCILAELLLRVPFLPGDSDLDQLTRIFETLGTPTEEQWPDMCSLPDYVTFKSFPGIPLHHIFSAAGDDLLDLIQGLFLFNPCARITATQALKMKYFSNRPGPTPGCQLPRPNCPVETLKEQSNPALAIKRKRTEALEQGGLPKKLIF
Procedure: as §1

GRK1 = target: T1, GRK1 (Homo sapiens, UniProt Q15835)
T1 sequence (Q15835 1-563): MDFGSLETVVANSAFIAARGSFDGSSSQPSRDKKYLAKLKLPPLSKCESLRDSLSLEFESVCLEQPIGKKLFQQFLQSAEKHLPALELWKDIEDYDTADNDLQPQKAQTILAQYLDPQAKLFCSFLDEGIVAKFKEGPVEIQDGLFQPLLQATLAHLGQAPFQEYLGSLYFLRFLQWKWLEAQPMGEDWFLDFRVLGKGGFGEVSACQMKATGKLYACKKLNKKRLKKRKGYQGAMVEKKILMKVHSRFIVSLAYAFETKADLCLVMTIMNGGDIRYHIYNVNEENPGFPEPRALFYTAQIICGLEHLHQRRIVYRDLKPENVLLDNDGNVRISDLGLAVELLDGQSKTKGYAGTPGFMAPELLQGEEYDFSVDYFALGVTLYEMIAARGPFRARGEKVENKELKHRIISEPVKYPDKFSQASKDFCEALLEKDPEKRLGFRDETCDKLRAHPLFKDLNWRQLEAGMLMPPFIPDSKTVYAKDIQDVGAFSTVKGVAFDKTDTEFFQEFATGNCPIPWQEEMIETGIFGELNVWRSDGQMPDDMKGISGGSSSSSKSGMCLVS
Procedure: as §1

SBK1 = SBK1 (Homo sapiens, UniProt Q52WX2)
Sequence of SBK1 (Q52WX2 whole entry): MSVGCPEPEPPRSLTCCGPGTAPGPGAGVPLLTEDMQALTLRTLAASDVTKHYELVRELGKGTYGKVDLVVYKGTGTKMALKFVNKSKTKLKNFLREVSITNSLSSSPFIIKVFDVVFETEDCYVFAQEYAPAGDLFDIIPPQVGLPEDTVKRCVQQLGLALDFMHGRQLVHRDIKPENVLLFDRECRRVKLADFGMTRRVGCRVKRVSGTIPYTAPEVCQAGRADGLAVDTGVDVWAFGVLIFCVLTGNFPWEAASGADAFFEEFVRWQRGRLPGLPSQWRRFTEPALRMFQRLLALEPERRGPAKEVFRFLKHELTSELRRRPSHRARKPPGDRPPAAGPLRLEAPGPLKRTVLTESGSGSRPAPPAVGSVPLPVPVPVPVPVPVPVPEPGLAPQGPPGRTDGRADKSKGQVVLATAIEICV
Procedure: as §1

ULK1 = target: T2, ULK1 (Homo sapiens, UniProt O75385)
T2 sequence (O75385 1-1050): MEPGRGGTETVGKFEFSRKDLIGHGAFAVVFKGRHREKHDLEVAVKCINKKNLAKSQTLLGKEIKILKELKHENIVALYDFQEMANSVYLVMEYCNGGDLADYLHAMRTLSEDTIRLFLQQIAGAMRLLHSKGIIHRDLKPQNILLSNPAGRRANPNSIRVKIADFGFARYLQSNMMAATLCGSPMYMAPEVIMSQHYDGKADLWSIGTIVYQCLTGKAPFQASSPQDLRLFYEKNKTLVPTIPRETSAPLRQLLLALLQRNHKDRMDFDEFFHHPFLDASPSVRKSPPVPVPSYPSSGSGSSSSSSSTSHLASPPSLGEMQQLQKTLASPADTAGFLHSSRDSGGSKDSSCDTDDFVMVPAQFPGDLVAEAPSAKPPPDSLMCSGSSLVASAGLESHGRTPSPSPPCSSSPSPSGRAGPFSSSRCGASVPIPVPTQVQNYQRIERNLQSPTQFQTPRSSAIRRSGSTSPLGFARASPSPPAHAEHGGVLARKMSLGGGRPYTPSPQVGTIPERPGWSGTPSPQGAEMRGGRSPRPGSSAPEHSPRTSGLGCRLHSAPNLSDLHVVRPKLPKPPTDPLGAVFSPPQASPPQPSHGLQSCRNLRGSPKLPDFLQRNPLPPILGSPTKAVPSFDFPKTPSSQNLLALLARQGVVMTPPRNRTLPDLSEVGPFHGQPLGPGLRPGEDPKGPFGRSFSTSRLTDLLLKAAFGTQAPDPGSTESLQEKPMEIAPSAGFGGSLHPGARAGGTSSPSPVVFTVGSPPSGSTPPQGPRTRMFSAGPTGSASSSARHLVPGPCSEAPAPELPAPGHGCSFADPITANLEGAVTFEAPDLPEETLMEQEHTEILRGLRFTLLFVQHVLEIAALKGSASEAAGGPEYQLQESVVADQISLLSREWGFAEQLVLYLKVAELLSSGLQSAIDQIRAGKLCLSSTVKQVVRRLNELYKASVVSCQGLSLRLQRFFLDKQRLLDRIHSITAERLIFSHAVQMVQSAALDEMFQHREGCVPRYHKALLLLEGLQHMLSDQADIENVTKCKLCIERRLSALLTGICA
Procedure: as §1

Sequence of CAMK2A (Q9UQM7 whole entry): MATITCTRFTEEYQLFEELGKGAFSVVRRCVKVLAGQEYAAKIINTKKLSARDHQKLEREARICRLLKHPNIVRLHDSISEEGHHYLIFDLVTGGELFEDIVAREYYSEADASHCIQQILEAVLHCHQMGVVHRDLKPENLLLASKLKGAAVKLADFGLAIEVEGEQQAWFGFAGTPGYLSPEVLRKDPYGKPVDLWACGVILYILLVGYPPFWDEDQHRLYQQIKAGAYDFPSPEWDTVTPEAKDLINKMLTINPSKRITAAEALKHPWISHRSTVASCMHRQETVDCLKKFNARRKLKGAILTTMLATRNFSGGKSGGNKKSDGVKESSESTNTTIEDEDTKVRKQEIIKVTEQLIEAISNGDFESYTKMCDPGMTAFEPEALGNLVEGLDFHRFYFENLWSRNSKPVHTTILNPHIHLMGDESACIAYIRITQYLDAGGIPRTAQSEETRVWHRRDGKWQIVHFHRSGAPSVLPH

Nc1nc2c(-c3ccccn3)nccc2[nH]1 [drawing 35, 4-(pyrid-2-yl)-1H-imidazo[4,5-c]pyridin-2-amine]
remaining activity at 1 µM (CAMK2A): 100%
remaining activity at 1 µM (CAMK2G): 20%
remaining activity at 1 µM (CDK7): 30%
remaining activity at 1 µM (GRK1): 49%
remaining activity at 1 µM (SBK1): 53%
remaining activity at 1 µM (ULK1): 33%

Nc1nc2c(-c3cc(Br)c(Br)[nH]3)nccc2[nH]1 [Ageladine A, ageladine A, reference compound]
remaining activity at 1 µM (CAMK2A): 100%
remaining activity at 10 µM (CAMK2A; 10 μM): 97%
remaining activity at 1 µM (CAMK2G): 100%
remaining activity at 10 µM (CAMK2G; 10 μM): 78%
remaining activity at 1 µM (CDK7): 79%
remaining activity at 10 µM (CDK7; 10 μM): 66%
remaining activity at 1 µM (GRK1): 80%
remaining activity at 10 µM (GRK1; 10 μM): 85%
remaining activity at 1 µM (SBK1): 87%
remaining activity at 10 µM (SBK1; 10 μM): 77%
remaining activity at 1 µM (ULK1): 62%
remaining activity at 10 µM (ULK1; 10 μM): 20%

Nc1nc2c(-c3cnc4ccccc4c3)nccc2[nH]1 [drawing 36, 4-(quinolin-3-yl)-1H-imidazo[4,5-c]pyridin-2-amine]
remaining activity at 1 µM (CAMK2A): 100%
remaining activity at 1 µM (CAMK2G): 100%
remaining activity at 1 µM (CDK7): 100%
remaining activity at 1 µM (GRK1): 86%
remaining activity at 1 µM (SBK1): 100%
remaining activity at 1 µM (ULK1): 91%
